Test results: ChEMBL document CHEMBL1201862, “PubChem BioAssay data set” (2004)
The source made the active and inactive calls.

Legend:
[1] = molecular target: T1, Serine/threonine-protein phosphatase (Candida dubliniensis (strain CD36 / CBS 7987 / NCPF 3949 / NRRLY-17841) (Yeast), UniProt B9W6M3); assay: calcineurin pathway inhibitors in yeast reporter, dose response, S. cerevisiae, CDRE-lacZ, luminescence, secondary (AID 2388); format: functional, cell-based;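 also: yeast reporter cells carrying a calcineurin-responsive lacZ construct stimulated with calcium chloride; luminescent beta-galactosidase reporter signal in whole cells rather than isolated phosphatase activity; potency for inhibition where a drop in reporter signal means calcineurin blockade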
T1 sequence (B9W6M3 whole entry): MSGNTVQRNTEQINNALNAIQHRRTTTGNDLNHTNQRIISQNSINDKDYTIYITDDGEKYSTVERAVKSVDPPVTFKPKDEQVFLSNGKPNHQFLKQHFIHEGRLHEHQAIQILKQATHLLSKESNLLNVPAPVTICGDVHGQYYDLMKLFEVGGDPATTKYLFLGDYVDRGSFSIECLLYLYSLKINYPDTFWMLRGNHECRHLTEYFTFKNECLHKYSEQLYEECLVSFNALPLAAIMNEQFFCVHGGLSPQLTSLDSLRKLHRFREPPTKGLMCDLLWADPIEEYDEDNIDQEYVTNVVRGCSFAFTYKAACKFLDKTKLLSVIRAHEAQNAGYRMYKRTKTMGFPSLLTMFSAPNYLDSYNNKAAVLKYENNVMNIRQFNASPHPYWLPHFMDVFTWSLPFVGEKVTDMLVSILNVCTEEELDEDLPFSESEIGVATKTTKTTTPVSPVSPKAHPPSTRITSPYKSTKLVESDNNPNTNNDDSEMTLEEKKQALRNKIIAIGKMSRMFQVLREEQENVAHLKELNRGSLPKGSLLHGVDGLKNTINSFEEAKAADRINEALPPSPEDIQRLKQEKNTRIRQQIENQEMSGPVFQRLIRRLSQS

[2] = NIH-3T3 fibroblast cytotoxicity, dose response, cytotoxicity control, cell-based, fluorescence, Alamar Blue, secondary assay (AID 2327); format: functional;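 also: NIH-3T3 mouse fibroblasts cultured with fluconazole at 8 µg/mL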
[3] = molecular target: Leukocyte tyrosine kinase receptor (Homo sapiens, UniProt P29376); assay: Navigating the Kinome. Panel member name: LTK; format: functional
[4] = molecular target: Serine/threonine-protein kinase BRSK1 (Homo sapiens, UniProt Q8TDC3); format: functional;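 also: measured within a kinome-wide kinase panel, with the target listed as KIAA1811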
[5] = molecular target: Serine/threonine-protein kinase TBK1 (Homo sapiens, UniProt Q9UHD2); assay: Navigating the Kinome. Panel member name: TBK1; format: functional
[6] = molecular target: Aurora kinase B (Homo sapiens, UniProt Q96GD4); format: functional
[7] = molecular target: Tyrosine-protein kinase JAK3 (Homo sapiens, UniProt P52333); format: functional
[8] = molecular target: Serine/threonine-protein kinase TAO1 (Homo sapiens, UniProt Q7L7X3); format: functional
[9] = molecular target: Death-associated protein kinase 3 (Homo sapiens, UniProt O43293); format: functional;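 also: measured as one member of a kinome-wide profiling panel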
[10] = molecular target: Protein kinase C theta type (Homo sapiens, UniProt Q04759); assay: Navigating the Kinome. Panel member name: PRKCQ; format: functional
[11] = molecular target: Hepatocyte growth factor receptor (Homo sapiens, UniProt P08581); format: functional;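 also: kinase panel profiling across the kinome, with MET as the panel member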
[12] = molecular target: Protein kinase C delta type (Homo sapiens, UniProt Q05655); format: functional
[13] = molecular target: Serine/threonine-protein kinase 17A (Homo sapiens, UniProt Q9UEE5); format: functional
[14] = molecular target: Mitogen-activated protein kinase kinase kinase kinase 4 (Homo sapiens, UniProt O95819); format: functional
[15] = molecular target: Serine/threonine-protein kinase PAK 4 (Homo sapiens, UniProt O96013); format: functional;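 also: value obtained within a kinome profiling panel in which PAK4 was one of the panel members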
[16] = molecular target: ALK tyrosine kinase receptor (Homo sapiens, UniProt Q9UM73); format: functional;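 also: ALK tested as one member of a kinase panel screen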
[17] = molecular target: Tyrosine-protein kinase Fyn (Homo sapiens, UniProt P06241); format: functional
[18] = molecular target: Calcium/calmodulin-dependent protein kinase type II subunit gamma (Homo sapiens, UniProt Q13555); format: functional
Chain of Calcium/calmodulin-dependent protein kinase type II subunit gamma (Q13555 whole entry): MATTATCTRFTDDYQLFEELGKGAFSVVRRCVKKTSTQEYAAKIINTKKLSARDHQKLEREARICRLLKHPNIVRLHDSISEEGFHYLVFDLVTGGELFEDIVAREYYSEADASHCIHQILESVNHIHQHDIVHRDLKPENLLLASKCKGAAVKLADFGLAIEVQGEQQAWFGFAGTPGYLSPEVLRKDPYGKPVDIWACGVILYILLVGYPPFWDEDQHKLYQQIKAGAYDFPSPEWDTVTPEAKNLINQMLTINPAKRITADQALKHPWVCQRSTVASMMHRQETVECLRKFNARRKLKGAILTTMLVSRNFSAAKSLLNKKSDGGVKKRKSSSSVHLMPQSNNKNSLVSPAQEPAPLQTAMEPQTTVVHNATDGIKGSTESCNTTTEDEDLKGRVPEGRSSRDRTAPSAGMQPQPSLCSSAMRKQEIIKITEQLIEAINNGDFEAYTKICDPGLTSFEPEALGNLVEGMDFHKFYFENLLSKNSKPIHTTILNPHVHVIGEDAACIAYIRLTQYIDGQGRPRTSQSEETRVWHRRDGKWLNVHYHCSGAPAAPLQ

[19] = molecular target: Inhibitor of nuclear factor kappa-B kinase subunit epsilon (Homo sapiens, UniProt Q14164); assay: Navigating the Kinome. Panel member name: IKBKE; format: functional
[20] = molecular target: Mitogen-activated protein kinase kinase kinase 10 (Homo sapiens, UniProt Q02779); assay: Navigating the Kinome. Panel member name: MAP3K10; format: functional
[21] = molecular target: Tyrosine-protein kinase Fer (Homo sapiens, UniProt P16591); format: functional;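 also: FER tested as one member of a kinome panel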
Chain of Tyrosine-protein kinase Fer (P16591 whole entry): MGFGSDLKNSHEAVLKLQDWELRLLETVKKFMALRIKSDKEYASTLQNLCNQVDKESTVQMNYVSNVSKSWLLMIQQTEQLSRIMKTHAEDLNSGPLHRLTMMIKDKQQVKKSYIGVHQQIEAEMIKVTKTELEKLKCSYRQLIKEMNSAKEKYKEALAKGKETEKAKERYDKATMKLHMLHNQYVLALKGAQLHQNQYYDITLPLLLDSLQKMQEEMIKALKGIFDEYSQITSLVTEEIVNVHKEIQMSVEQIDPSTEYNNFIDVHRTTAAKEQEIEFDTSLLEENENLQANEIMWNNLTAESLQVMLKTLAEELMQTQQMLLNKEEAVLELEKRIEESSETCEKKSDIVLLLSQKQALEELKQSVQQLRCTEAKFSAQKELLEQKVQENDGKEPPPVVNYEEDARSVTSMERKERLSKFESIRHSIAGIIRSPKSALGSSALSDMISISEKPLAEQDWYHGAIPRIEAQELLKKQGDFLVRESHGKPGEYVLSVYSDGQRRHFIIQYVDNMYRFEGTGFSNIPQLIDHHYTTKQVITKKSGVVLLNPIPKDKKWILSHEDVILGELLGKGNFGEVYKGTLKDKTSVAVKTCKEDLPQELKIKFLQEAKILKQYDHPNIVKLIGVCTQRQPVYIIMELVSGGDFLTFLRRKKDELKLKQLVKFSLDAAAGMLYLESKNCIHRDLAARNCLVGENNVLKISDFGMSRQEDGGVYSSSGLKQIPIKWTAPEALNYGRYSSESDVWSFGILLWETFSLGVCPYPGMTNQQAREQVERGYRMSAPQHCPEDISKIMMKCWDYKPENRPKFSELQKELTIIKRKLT

[22] = molecular target: RAC-gamma serine/threonine-protein kinase (Homo sapiens, UniProt Q9Y243); format: functional
[23] = molecular target: Mitogen-activated protein kinase 14 (Homo sapiens, UniProt Q16539); format: functional;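 also: part of a kinome-wide panel, MAPK14 entry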
[24] = molecular target: Cyclin-dependent kinase 8 (Homo sapiens, UniProt P49336); assay: Navigating the Kinome. Panel member name: CDK8; format: functional
Chain of Cyclin-dependent kinase 8 (P49336 whole entry): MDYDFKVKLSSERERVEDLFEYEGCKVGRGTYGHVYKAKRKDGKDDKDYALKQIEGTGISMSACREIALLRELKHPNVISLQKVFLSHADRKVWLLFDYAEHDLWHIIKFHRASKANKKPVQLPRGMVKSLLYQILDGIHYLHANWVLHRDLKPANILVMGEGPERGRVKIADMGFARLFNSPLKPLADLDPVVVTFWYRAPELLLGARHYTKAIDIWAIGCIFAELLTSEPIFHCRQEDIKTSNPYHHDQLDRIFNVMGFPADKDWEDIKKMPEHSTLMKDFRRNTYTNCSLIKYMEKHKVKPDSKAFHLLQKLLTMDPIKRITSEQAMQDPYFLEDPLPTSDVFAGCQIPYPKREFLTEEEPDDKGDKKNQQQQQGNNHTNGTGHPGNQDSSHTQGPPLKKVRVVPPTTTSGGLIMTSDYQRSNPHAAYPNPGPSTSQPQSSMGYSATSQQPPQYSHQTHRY

[25] = molecular target: Dual specificity protein kinase CLK4 (Homo sapiens, UniProt Q9HAZ1); format: functional
[26] = molecular target: Rho-associated protein kinase 1 (Homo sapiens, UniProt Q13464); format: functional;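 also: measured within a broad kinome-wide panel profiling many kinases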
[27] = molecular target: Mitogen-activated protein kinase 10 (Homo sapiens, UniProt P53779); assay: Navigating the Kinome. Panel member name: MAPK10; format: functional
Chain of Mitogen-activated protein kinase 10 (P53779 whole entry): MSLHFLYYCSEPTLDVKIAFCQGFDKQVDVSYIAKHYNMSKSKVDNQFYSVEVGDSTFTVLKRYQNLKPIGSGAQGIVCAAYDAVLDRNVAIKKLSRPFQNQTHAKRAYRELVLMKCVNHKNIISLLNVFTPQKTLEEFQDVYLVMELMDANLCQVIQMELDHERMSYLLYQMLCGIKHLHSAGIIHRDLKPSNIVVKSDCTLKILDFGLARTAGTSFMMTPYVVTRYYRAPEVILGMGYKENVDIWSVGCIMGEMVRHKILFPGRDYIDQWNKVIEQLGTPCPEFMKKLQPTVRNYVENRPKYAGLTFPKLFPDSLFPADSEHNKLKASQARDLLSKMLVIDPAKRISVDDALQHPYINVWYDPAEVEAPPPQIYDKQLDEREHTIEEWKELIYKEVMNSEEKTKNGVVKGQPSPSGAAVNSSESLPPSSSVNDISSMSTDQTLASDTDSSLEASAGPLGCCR

[28] = molecular target: Testis-specific serine/threonine-protein kinase 1 (Homo sapiens, UniProt Q9BXA7); format: functional
Chain of Testis-specific serine/threonine-protein kinase 1 (Q9BXA7 whole entry): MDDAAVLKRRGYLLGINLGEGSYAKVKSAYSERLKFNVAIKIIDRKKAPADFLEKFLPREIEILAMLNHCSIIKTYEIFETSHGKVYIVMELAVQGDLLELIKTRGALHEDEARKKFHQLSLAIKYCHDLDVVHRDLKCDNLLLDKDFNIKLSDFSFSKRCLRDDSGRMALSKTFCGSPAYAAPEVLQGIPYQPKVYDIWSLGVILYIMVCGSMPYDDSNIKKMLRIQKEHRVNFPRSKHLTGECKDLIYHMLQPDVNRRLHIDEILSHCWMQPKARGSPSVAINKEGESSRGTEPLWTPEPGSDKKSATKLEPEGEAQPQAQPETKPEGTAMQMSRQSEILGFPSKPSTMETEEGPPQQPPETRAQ

[29] = molecular target: Vascular endothelial growth factor receptor 1 (Homo sapiens, UniProt P17948); format: functional;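 also: measured within a kinome-wide profiling panel, FLT1 as the panel member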
Chain of Vascular endothelial growth factor receptor 1 (P17948 whole entry): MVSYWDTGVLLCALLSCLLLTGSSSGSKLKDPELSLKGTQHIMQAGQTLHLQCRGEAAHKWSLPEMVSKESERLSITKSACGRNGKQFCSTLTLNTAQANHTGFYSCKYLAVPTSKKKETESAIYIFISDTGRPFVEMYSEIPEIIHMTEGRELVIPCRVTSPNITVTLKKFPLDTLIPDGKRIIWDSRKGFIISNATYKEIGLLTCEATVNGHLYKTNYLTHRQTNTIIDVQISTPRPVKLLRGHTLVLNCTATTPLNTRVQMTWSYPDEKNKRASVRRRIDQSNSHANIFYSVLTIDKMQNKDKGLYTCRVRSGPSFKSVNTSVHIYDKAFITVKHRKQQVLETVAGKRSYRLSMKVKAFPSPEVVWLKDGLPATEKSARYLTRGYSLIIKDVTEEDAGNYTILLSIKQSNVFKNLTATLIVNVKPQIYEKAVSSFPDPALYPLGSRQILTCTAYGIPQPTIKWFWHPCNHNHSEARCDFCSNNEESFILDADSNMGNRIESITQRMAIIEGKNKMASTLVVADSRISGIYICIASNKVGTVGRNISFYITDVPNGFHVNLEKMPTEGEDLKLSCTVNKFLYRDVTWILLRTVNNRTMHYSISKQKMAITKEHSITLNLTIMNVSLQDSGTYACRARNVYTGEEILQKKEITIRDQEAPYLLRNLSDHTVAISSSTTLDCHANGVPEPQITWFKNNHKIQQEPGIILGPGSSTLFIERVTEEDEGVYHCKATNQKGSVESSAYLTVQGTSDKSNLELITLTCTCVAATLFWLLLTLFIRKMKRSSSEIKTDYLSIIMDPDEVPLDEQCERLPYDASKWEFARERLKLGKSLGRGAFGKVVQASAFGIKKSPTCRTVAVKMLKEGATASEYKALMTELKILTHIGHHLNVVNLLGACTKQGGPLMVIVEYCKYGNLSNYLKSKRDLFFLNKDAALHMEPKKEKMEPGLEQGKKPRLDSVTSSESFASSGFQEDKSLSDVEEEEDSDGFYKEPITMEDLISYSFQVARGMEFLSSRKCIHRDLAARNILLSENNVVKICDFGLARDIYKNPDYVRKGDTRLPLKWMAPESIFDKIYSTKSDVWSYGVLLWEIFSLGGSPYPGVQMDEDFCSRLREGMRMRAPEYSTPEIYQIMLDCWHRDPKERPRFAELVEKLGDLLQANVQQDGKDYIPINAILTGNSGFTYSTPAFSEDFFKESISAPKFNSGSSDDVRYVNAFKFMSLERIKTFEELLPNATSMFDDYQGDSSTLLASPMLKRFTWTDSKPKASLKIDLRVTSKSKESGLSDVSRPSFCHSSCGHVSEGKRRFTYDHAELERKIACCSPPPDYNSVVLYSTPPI

[30] = molecular target: Receptor-type tyrosine-protein kinase FLT3 (Homo sapiens, UniProt P36888); format: functional;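 also: FLT3 was tested as one member of a kinome-wide kinase panel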
[31] = molecular target: MAP/microtubule affinity-regulating kinase 3 (Homo sapiens, UniProt P27448); format: functional;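 also: MARK3 affinity measured as one member of a kinome panel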
[32] = molecular target: Serine/threonine-protein kinase D3 (Homo sapiens, UniProt O94806); format: functional;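 also: determined within a kinase panel screen, with PRKCN as the panel member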
Chain of Serine/threonine-protein kinase D3 (O94806 whole entry): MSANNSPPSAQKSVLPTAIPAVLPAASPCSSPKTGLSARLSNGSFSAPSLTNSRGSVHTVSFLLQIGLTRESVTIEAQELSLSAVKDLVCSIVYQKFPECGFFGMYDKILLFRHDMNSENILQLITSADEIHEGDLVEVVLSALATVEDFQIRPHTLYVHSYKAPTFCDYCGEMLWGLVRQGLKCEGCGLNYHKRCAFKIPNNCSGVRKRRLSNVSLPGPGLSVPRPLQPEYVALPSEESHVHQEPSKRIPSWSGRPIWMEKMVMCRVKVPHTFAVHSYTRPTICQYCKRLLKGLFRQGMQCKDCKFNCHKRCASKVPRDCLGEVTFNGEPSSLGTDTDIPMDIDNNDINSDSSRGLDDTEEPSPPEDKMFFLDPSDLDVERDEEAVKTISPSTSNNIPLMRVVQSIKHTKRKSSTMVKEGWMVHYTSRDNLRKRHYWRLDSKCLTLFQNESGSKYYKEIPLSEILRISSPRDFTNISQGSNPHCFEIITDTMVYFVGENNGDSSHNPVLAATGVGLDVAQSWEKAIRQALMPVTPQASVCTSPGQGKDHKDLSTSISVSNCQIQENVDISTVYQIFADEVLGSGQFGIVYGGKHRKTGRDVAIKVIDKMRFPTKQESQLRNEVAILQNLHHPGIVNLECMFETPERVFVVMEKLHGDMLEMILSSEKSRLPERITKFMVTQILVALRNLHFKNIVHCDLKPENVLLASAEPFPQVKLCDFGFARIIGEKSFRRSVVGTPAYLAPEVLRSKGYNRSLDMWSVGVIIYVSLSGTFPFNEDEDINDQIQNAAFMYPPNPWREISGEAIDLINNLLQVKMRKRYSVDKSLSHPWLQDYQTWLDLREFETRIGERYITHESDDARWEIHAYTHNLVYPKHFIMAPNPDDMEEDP

[33] = molecular target: Ephrin type-A receptor 2 (Homo sapiens, UniProt P29317); format: functional;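 also: EPHA2 tested as one member of a kinome-wide kinase panel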
[34] = molecular target: High affinity nerve growth factor receptor (Homo sapiens, UniProt P04629); format: functional;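 also: NTRK1 tested as one member of a kinome-wide profiling panel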
[35] = molecular target: Serine/threonine-protein kinase 3 (Homo sapiens, UniProt Q13188); format: functional;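 also: measured as one member of a kinome-wide kinase panel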
[36] = molecular target: BDNF/NT-3 growth factors receptor (Homo sapiens, UniProt Q16620); format: functional;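 also: NTRK2 measured as one member of a broad kinome-wide kinase profiling panel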
[37] = molecular target: Serine/threonine-protein kinase MRCK alpha (Homo sapiens, UniProt Q5VT25); format: functional

CCCn1nc([N+](=O)[O-])c(C(C#N)c2nc3ccccc3s2)c(Cl)c1=O (configuration not stated)
EC50 [1]: > 180000 nM (inactive)
EC50 [2]: > 160000 nM (inactive)

NCCCn1cc(-c2cc(-c3cc4ccccc4s3)c3[nH]ncc3c2)c2nc(N)ncc21
Ki [3]: > 2510 nM (inactive)
Ki [4]: 79.4 nM (active)
Ki [5]: > 1580 nM (inactive)
Ki [6]: > 2000 nM (inactive)
Ki [7]: > 3980 nM (inactive)
Ki [8]: > 5010 nM (inactive)
Ki [9]: 79.4 nM (active)
Ki [10]: > 2000 nM (inactive)
Ki [11]: > 2000 nM (inactive)
Ki [12]: 316 nM (active)
Ki [13]: 39.8 nM (active)
Ki [14]: > 3160 nM (inactive)
Ki [15]: 2510 nM (active)
Ki [16]: > 3980 nM (inactive)
Ki [17]: > 3160 nM (inactive)
Ki [18]: 501 nM (active)
Ki [19]: > 3160 nM (inactive)
Ki [20]: 126 nM (active)
Ki [21]: > 1580 nM (inactive)
Ki [22]: 251 nM (active)
Ki [23]: > 3980 nM (inactive)
Ki [24]: > 3980 nM (inactive)
Ki [25]: 31.6 nM (active)
Ki [26]: 79.4 nM (active)
Ki [27]: > 3160 nM (inactive)
Ki [28]: 251 nM (active)
Ki [29]: > 2510 nM (inactive)
Ki [30]: > 1260 nM (inactive)
Ki [31]: 63.1 nM (active)
Ki [32]: 398 nM (active)
Ki [33]: > 3160 nM (inactive)
Ki [34]: > 2510 nM (inactive)
Ki [35]: 501 nM (active)
Ki [36]: > 3980 nM (inactive)
Ki [37]: 631 nM (active)
